Data reported in patent US12532884B2, “Fungicidal compositions” (SYNGENTA CROP PROTECTION AG, priority 2020, dated 2026).
“And” between values parts separate entries of the source, which are not always exact repeats. Equal entries are not always repeated. Where two headings read alike, the source gives them in different places.

What was measured:
[1] = tested on: Corynespora cassiicola; test: Example C5: mixtures against Corynespora cassiicola (target leaf spot), liquid culture; type: cell-based; conditions: single component
From the text: (§1) Certain mixture compositions comprising a compound of formula (I) described above may show a synergistic effect. This occurs whenever the action of an active ingredient combination is greater than the sum of the actions of the individual components. The action to be expected E for a given active ingredient combination obeys the so-called COLBY formula and can be calculated as follows (COLBY, S. R. “Calculating synergistic and antagonistic responses of herbicide combination”. Weeds, Vol. 15, pages 20-22; 1967): • ppm=milligrams of active ingredient (=a.i.) per liter of spray mixture • X=% action by active ingredient A) using p ppm of active ingredient • Y=% action by active ingredient B) using q ppm of active ingredient.
(§2) According to COLBY, the expected (additive) action of active ingredients A)+B) using p+q ppm of active ingredient is:
(§3) If the action actually observed (O) is greater than the expected action (E), then the action of the combination is super-additive, i.e. there is a synergistic effect. In mathematical terms, synergism corresponds to a positive value for the difference of (O-E). In the case of purely complementary addition of activities (expected activity), said difference (O-E) is zero. A negative value of said difference (O-E) signals a loss of activity compared to the expected activity.
(§4) Mycelia fragments or conidia suspensions of a fungus prepared either freshly from liquid cultures of the fungus or from cryogenic storage, are directly mixed into nutrient broth. DMSO solutions of the test compound (max. 10 mg/mL) are diluted with 0.025% Tween20 by a factor of 50 and 10 μl of this solution is pipetted into a microtiter plate (96-well format). The nutrient broth containing the fungal spores/mycelia fragments is then added to give an end concentration of the tested compound. The test plates are incubated in the dark at 24° C. and 96% relative humidity. The inhibition of fungal growth is determined photometrically after 2 to 7 days, depending on the pathosystem, and percent antifungal activity relative to the untreated check is calculated.
Conidia of the fungus from cryogenic storage were directly mixed into nutrient broth (PDB potato dextrose broth). A DMSO solution of the test compounds was placed into a microtiter plate (96-well format) and the nutrient broth containing the fungal spores was added to it. The test plates were incubated at 24 C and the inhibition of growth was determined photometrically after 3-4 days at 620 nm.
(§5) The following mixture compositions at the reported concentration (in ppm) in tables C4-3 and C4-4 gave the following disease control in this test (Corynespora cassiicola). Fungicidal activity was evaluated on a 100-0 scale (100=no disease growth; 0=well completely covered by mycelium).

[2] = tested on: Septoria glycines; test: Example C3: mixtures against Septoria glycines (brown spot), liquid culture; type: cell-based; conditions: single component
From the text: This occurs whenever the action of an active ingredient combination is greater than the sum of the actions of the individual components. The action to be expected E for a given active ingredient combination obeys the so-called COLBY formula and can be calculated as follows (COLBY, S. R. “Calculating synergistic and antagonistic responses of herbicide combination”. Weeds, Vol. 15, pages 20-22; 1967): • ppm=milligrams of active ingredient (=a.i.) per liter of spray mixture • X=% action by active ingredient A) using p ppm of active ingredient • Y=% action by active ingredient B) using q ppm of active ingredient.
as §2, §3
as §4, with “The nutrient broth containing the fungal spores/mycelia fragments is then added to give an end concentration of the tested compound.” left out
Conidia of the fungus harvested from a fresh culture grown on artificial media, were directly mixed into nutrient broth (PDB potato dextrose broth). A DMSO solution of the test compounds was placed into a microtiter plate (96-well format) and the nutrient broth containing the fungal spores was added to it.
Fungicidal activity was evaluated on a 100-0 scale (100=no disease growth; 0=well completely covered by mycelium).

[3] = tested on: Glomerella lagenarium syn. Colletotrichum lagenarium; test: Example C4: mixtures against Glomerella lagenarium syn. Colletotrichum lagenarium (anthracnose), liquid culture; type: cell-based; conditions: single component
From the text: as §1, §2, §3, §4
(§6) Conidia of the fungus from cryogenic storage were directly mixed into nutrient broth (PDB potato dextrose broth). A DMSO solution of the test compounds was placed into a microtiter plate (96-well format) and the nutrient broth containing the fungal spores was added to it.
as §5, with “(Glomerella lagenarium syn. Colletotrichum lagenarium).” for “(Corynespora cassiicola).”

[4] = tested on: Mycosphaerella arachidis syn. Cercospora arachidicola; test: Example C1: mixtures against Mycosphaerella arachidis syn. Cercospora arachidicola (brown leaf spot), liquid culture; type: cell-based; conditions: single component, 100-0 scale (100=no disease growth)
From the text: as §1, §2, §3, §4, §6
as §5, with “C1-3” for “C4-3”, “C1-4” for “C4-4”, “Mycosphaerella arachidis syn. Cercospora arachidicola (Brown leaf spot of peanut).” for “(Corynespora cassiicola).”

[5] = tested on: Septoria tritici; test: Example C2: mixtures against Septoria tritici (leaf blotch), liquid culture; type: cell-based; conditions: single component; for inhibition at 0.1 ppm: 100-0 scale (100=no disease growth)
From the text: as §1, §2, §3, §4, §6
The following mixture compositions at the reported concentration (in ppm) in tables C2-3 to C2-5 gave the following disease control in this test Septoria tritici (leaf blotch). Fungicidal activity was evaluated on a 100-0 scale (100=no disease growth; 0=well completely covered by mycelium).

[6] = tested on: Phakopsora pachyrhizi; test: Example D: preventative activity against Phakopsora pachyrhizi on soybean (whole plants sprayed, leaf disks inoculated); type: in vivo
From the text: as §1, §2, §3
Whole soybean plants are treated with the recited active ingredients 4 weeks after planting. 1 day after spraying leaf disks are cut from the first trifoliate leaf. Five repetitions at each rate are conducted. The leaf disks are inoculated with Phakopsora pachyrhizi (Asian soybean rust) one day after treatment. Evaluation of the leaf disks is conducted 11 to 14 days after inoculation and the activity is derived from the relation of the treated vs untreated, infested check. (100=no disease, no damage to the leaf, 0=high infestation, leaf damaged heavily). The rates of the active ingredients used are given in the tables as g active ingredient (a.i.)/ha.

[7] = tested on: Puccinia recondita (Brown rust); test: Example B: comparative biological activity against Puccinia recondita (brown rust), curative, wheat leaf segments; type: in vivo; conditions: 8 dpi
Description: Method; Wheat leaf segments are placed on agar in multiwell plates (24-well format). The leaf segments are inoculated with a spore suspension of the fungus and sprayed with test solutions 1 day after inoculation. After appropriate incubation the activity of a compound is assessed 8 dpi (days after inoculation) as curative fungicidal activity.
The data are presented as the percentage of disease control of each compound for the biological tests and testing rates described below in table B1.

[8] = Zymoseptoria tritici, 100-0 scale

COc1ccnc(C(=O)N[C@@H](C)C(=O)O[C@@H](C)C(c2ccc(F)cc2)c2ccc(F)cc2)c1OC(C)=O [Florylpicoxamid, reference compound]
Activity (%) ([1]; 0.02 ppm): 0% | Activity (%) ([2]; 0.01 ppm): 0% | Activity (%) ([2]; 0.02 ppm): 0% | Activity (%) ([3]; 0.1 ppm): 20% | Activity (%) ([4]; 0.01 ppm): 50% | Activity (%) ([4]; 0.02 ppm): 90% | Activity (%) ([5]; 0.01 ppm, 100-0 scale): 70% | Activity (%) ([5]; 0.02 ppm, 100-0 scale): 90%

CO/C=C(\Oc1cc(C2CCCCC2)ccc1C)C(=O)OC [Compound X.04, methyl (Z)-2-(5-cyclohexyl-2-methyl-phenoxy)-3-methoxy-prop-2-enoate]
inhibition at 1.13 g/ha ([6]; Phakopsora pachyrhizi, foliar, applied alone, read-out: Observed Activity (% of untreated)): 20% | inhibition at 18 g/ha ([6]; Phakopsora pachyrhizi, foliar, applied alone, 18 g/ha, read-out: Observed Activity (% of untreated)): 74% | Observed Activity (% of untreated) ([6]; applied alone, 2.25 g/ha): 22% and 35% and 17% | Observed Activity (% of untreated) ([6]; applied alone, 4.5 g/ha): 67% and 34% and 49% and 53% | Observed Activity (% of untreated) ([6]; applied alone, 9 g/ha): 81% and 59% | inhibition at 0.2 ppm ([1]; Corynespora cassiicola, 0.2 ppm): 20% | inhibition at 0.00625 ppm ([2]; Septoria glycines, 0.00625 ppm): 0% | inhibition at 0.025 ppm ([2]; Septoria glycines, 0.025 ppm): 90% | inhibition at 0.03 ppm ([2]; Septoria glycines): 70% | control (%) ([7]; 20 ppm): 90% | control (%) ([7]; 60 ppm): 100% | control (%) ([7]; 200 ppm): 100% | inhibition at 0.03 ppm ([3]; Colletotrichum orbiculare): 0% | inhibition at 0.00625 ppm ([4]; Mycosphaerella arachidis, 0.00625 ppm): 0% | inhibition at 0.00625 ppm ([5]; Zymoseptoria tritici, 0.00625 ppm, 100-0 scale): 0% | inhibition at 0.025 ppm ([5]; Zymoseptoria tritici, 0.025 ppm, 100-0 scale): 70% | inhibition at 0.03 ppm [5, 8]: 50% | inhibition at 0.1 ppm ([5]; Zymoseptoria tritici): 70%

CO/C=C(\Oc1cc(C2CCCC2)ccc1C)C(=O)OC [Compound X.02, methyl (Z)-2-(5-cyclopentyl-2-methyl-phenoxy)-3-methoxy-prop-2-enoate]
inhibition at 2.25 g/ha ([6]; Phakopsora pachyrhizi, foliar, applied alone, 2.25 g/ha, read-out: Observed Activity (% of untreated)): 13% | inhibition at 4.5 g/ha ([6]; Phakopsora pachyrhizi, foliar, applied alone, 4.5 g/ha, read-out: Observed Activity (% of untreated)): 20% | inhibition at 1.13 g/ha ([6]; Phakopsora pachyrhizi, foliar, single active ingredient, soybean, preventative, 100=no disease, read-out: Observed Activity (%)): 1% | inhibition at 2.25 g/ha ([6]; Phakopsora pachyrhizi, foliar, single active ingredient, 2.25 g/ha, read-out: Observed Activity (%)): 14% | inhibition at 2.25 g/ha ([6]; Phakopsora pachyrhizi, foliar, single active ingredient, 2.25 g/ha, soybean, preventative, 100=no disease, read-out: Observed Activity (%)): 23% | inhibition at 4.5 g/ha ([6]; Phakopsora pachyrhizi, foliar, single active ingredient, 4.5 g/ha, read-out: Observed Activity (%)): 22% | inhibition at 4.5 g/ha ([6]; Phakopsora pachyrhizi, foliar, single active ingredient, 4.5 g/ha, soybean, preventative, 100=no disease, read-out: Observed Activity (%)): 33% | inhibition at 9 g/ha ([6]; Phakopsora pachyrhizi, foliar, single active ingredient, 9 g/ha, read-out: Observed Activity (%)): 38% | inhibition at 1 ppm ([1]; Corynespora cassiicola, 1 ppm): 20% | inhibition at 0.03 ppm ([2]; Septoria glycines, 100-0 scale (100=no disease growth)): 50% | inhibition at 0.03125 ppm ([2]; Septoria glycines, 0.03125 ppm): 70% | inhibition at 0.1 ppm ([2]; Septoria glycines, 0.1 ppm, 100-0 scale (100=no disease growth), read-out: Activity (%)): 70% | control (%) ([7]; 20 ppm): 0% | control (%) ([7]; 60 ppm): 0% | control (%) ([7]; 200 ppm): 100% | inhibition at 0.03 ppm ([3]; Colletotrichum orbiculare): 0% | inhibition at 0.1 ppm ([3]; Colletotrichum orbiculare, 0.1 ppm): 20% | inhibition at 0.03 ppm ([4]; Mycosphaerella arachidis, 0.03 ppm): 50% | inhibition at 0.03125 ppm ([4]; Mycosphaerella arachidis, 0.03125 ppm): 70% | inhibition at 0.03 ppm [5, 8]: 0% | inhibition at 0.03125 ppm ([5]; Zymoseptoria tritici, 0.03125 ppm, 100-0 scale): 20% | inhibition at 0.0625 ppm ([5]; Zymoseptoria tritici, 0.0625 ppm, 100-0 scale): 90% | inhibition at 0.1 ppm ([5]; Zymoseptoria tritici): 70%
